In ChEMBL document CHEMBL1125905, “Synthesis, conformational properties, and antibody recognition of peptides containing beta-turn mimetics based on alpha-alkylproline derivatives” (J Med Chem, 1991) one finds Kd data, which are given here for four compounds.

Assay [1] is described as follows: Dissociation constant (Kd) for the equilibrium binding to the monoclonal antibodies DB19/25 which were raised in mice was determined. Set-up: species or system Mus musculus.
A short description of assay [2]: Dissociation constant (Kd) for the equilibrium binding to the monoclonal antibodies DB19/1 which were raised in mice was determined. Set-up: species or system Mus musculus.

For `CC(=O)N[C@@H](Cc1ccc(O)cc1)C(=O)N1CCC[C@H]1C(=O)N[C@@H](Cc1ccc(O)cc1)C(=O)N[C@@H](CC(=O)O)C(=O)N[C@@H](C(=O)N(C)[C@@H](C)C(=O)N[C@H](CC(=O)O)C(=O)N[C@H](Cc1ccc(O)cc1)C(=O)N[C@H](C)C(=O)O)C(C)C`, the Kd in assay [1] worked out at 38 nM; in assay [2], 88 nM.
Take `CC(=O)N[C@@H](Cc1ccc(O)cc1)C(=O)N1CCC[C@H]1C(=O)N[C@@H](Cc1ccc(O)cc1)C(=O)N[C@@H](CC(=O)O)C(=O)N[C@@H](C(=O)N1CCC[C@@H]1C(=O)N[C@H](CC(=O)O)C(=O)N[C@H](Cc1ccc(O)cc1)C(=O)N[C@H](C)C(=O)O)C(C)C`: the dissociation constant (Kd) in assay [1] stood at 18 nM; in assay [2], 180 nM.
As to `CC(=O)N[C@@H](Cc1ccc(O)cc1)C(=O)N(C)[C@@H](C)C(=O)N[C@@H](Cc1ccc(O)cc1)C(=O)N[C@@H](CC(=O)O)C(=O)N[C@@H](C(=O)N1CCC[C@@H]1C(=O)N[C@H](CC(=O)O)C(=O)N[C@H](Cc1ccc(O)cc1)C(=O)N[C@H](C)C(=O)O)C(C)C`, the Kd in assay [1] is 600 nM; in assay [2], 4200 nM.
As to `CC(=O)N[C@@H](Cc1ccc(O)cc1)C(=O)N1CCC[C@@]1(C)C(=O)N[C@@H](Cc1ccc(O)cc1)C(=O)N[C@@H](CC(=O)O)C(=O)N[C@@H](C(=O)N1CCC[C@@H]1C(=O)N[C@H](CC(=O)O)C(=O)N[C@H](Cc1ccc(O)cc1)C(=O)N[C@H](C)C(=O)O)C(C)C`, the Kd stood at 5.7 nM in assay [1] and 3.6 nM in assay [2].
